In the test the test system is HepG2. Kind of test: Hepatoprotective activity in human HepG2 cells assessed as inhibition of paracetamol-induced reduction in cell viability at 10 uM pretreated for 1 hr followed by paracetamol addition after 24 hrs by MTT assay relative to control. Type of test: functional. In general terms: Tetrazolium dyes change colour on reduction, which living cells bring about.
As for `CC[C@H](C)C(=O)[C@]12C(=O)[C@](C)(C[C@H](CC=C(C)C)[C@@]1(C)CCC=C(C)C)C(=O)C1=C2O[C@H](C(C)(C)O)C1`, the inhibition (as a rule, the drop in the measured response relative to a control, in per cent) at 10 µM was 15%.
As for `CC(=O)CC1C2CC3(CC=C(C)C)C(=O)C1(C(=O)c1ccccc1)C(=O)C(CC=C(C)C)(C3=O)C2(C)C` (stereo not given), the figure is 13.9%.
As for `CC(C)=CC[C@H]1C[C@]2(CC=C(C)C)C(=O)C3=C(O[C@H](C(C)(C)O)C3)[C@@](C(=O)c3ccccc3)(C2=O)C1(C)C`, the figure is 19.5%.
For the compound `CC(C)=CC[C@H]1C[C@@]23C[C@H](C(C)(C)O)OC2=C(C(=O)c2ccccc2)C(=O)[C@](C(=O)c2ccccc2)(C3=O)C1(C)C`, the inhibition at 10 µM was 13.4%.
As for `COC(=O)[C@]1(CC=C(C)C)C[C@@H](CC=C(C)C)C(C)(C)[C@@H](C(=O)c2ccccc2)C1=O`, the figure is 32.3%.
As for `CC(C)=CC[C@@H]1C[C@@]2(CC=C(C)C)C(=O)[C@](C(=O)c3ccccc3)(C(=O)C3=C2O[C@H](C(C)(C)O)C3)C1(C)C`, the figure is 24.5%; as for `CC(C)=CCC1=C2O[C@@H](C(C)(C)O)C[C@@]23C[C@@H](CC=C(C)C)C(C)(C)[C@@](C(=O)c2ccccc2)(C1=O)C3=O`, -9.68%; as for `CC(C)=CC[C@H]1C[C@@]2(CC=C(C)C)C(=O)C3=C(O[C@H](C(C)(C)O)C3)[C@](C(=O)c3ccccc3)(C2=O)C1(C)C`, 40.4%.
As for `CC(C)=CC[C@H]1C[C@@H](CC=C(C)C)C(C)(C)C(C(=O)c2ccccc2)C1=O` (single isomer, unassigned), the figure is 45%.
For `COC(=O)c1cc(OC)c2c(c1-c1c(CO)cc(OC)c3c1OCO3)OCO2` [BICYCLOL], the inhibition at 10 µM stood at 28.3%.

For the origin of these results see ChEMBL document CHEMBL4043258, “Polycyclic polyprenylated acylphloroglucinol derivatives from Hypericum scabrum” (2017).
